# Measured values published in US12629363B2, “Prophylaxis and treatment of angioedema” (PHARVARIS GMBH, priority 2020, dated 2026).
# Read-outs that look alike come from different tables or passages of the source.
# Assays:
# [1] = system: dog B2 receptor; test: Antagonist potency in cells expressing dog B2 receptor; type: cell-based; conditions: compared with human B2 receptor
# Excerpt: The bradykinin B2 receptor is well known for its species selective pharmacology (Paquet et al., Br. J. Pharmacol. (126), 1083-1090, 1999 (DOI: 10.1038/sj.bjp.0702403); Burgess et al., Br. J. Pharmacol. (129), 77-86, 2000 (DOI: 10.1038/sj.bjp.0703012)). […] Pharmacol. 11:916; DOI: 10.3389/fphar.2020.00916.
# [2] = Single ascending dose study in healthy volunteers, plasma PK (Example 2); type: in vivo, human; conditions: for concentration at 0.25 h: read-out: C0.25h; for Vd/F: read-out: Vz/F
# [3] = Single ascending dose study in healthy volunteers, safety and tolerability (Example 2); type: in vivo, human
# Procedure: Safety was assessed by physical examination, vital signs, adverse events, safety laboratory and electrocardiogram (ECG) until 72 h post-dosing.
# [4] = target: T1, BK B2 receptor (Homo sapiens, UniProt P30411); test: Bradykinin challenge study, PK/PD (Example 3); type: in vivo; conditions: for Time plasma level above EC85 at a 75% confidence level / Time plasma level above EC85 at a 75% confidence level, DBP / Time plasma level above EC85 at a 75% confidence level, MAP: modeling and simulation
# T1 sequence (P30411 1-391): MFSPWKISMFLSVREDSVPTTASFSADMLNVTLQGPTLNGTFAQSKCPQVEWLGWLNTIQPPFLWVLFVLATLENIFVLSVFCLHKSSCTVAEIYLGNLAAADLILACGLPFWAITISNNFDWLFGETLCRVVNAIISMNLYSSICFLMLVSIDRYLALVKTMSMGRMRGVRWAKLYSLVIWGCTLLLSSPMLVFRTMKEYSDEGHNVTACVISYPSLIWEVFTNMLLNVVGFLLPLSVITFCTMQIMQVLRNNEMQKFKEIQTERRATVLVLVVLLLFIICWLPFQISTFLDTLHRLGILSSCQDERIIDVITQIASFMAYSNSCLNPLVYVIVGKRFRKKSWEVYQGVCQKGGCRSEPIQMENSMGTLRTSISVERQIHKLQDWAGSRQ
# Procedure: The compound (12 and 22 mg) was administered orally (p.o.) to 16 healthy volunteers. BK was injected intravenously prior to oral administration of the compound, i.e. BK predosing challenge, and at 1, 4, 8, 12 and 24 hours after oral administration (dosing) of the 12 and 22 mg single dose, respectively. BK injections were administered to induce cardiovascular responses in the volunteers. The cardiovascular responses were monitored, and blood samples were drawn over 24 hours for PK assessment. The PD outcome variables were measured from 5 min before until 5 min after each BK bolus. A % inhibition-of-the-baseline average-to-peak effect was calculated and used as the PD outcome.
# Immediately after BK injection a short-lived change in blood pressure, heart rate and cardiac output can be recorded.
# PK was analyzed using a two-compartment body model with first-order oral absorption and a lag time; results are shown in Table 4. For the PK/PD model a simple Emax-model with a direct link was utilized. The PK/PD model was used to simulate PK profiles (N=1000) and calculate probability of durations of effect as well as to visualize effect-time profiles; see FIGS. 4 and 5.
# [5] = 22 mg, HCHF breakfast vs fasted
# [6] = human, plasma, oral, 1 mg, fasted, mean
# [7] = human, plasma, oral, 2 mg, fasted, mean
# [8] = human, plasma, oral, 4.5 mg, fasted, mean
# [9] = human, plasma, oral, 12 mg, fasted, mean
# [10] = human, plasma, oral, 22 mg, after HCHF breakfast, mean
# [11] = human, plasma, oral, 22 mg, fasted, mean
# [12] = 22 mg, after HCHF breakfast, N = 6
# [13] = plasma concentration, PD in BK challenge
smiles,measurement,setting,value
[2H][C@@](C)(NC(=O)COC(F)F)c1cc(F)cc(Cl)c1COc1cccc2c(-c3ncnn3C)cc(C)nc12 [compound of formula (I)],fold less potent towards the dog B2 receptor,[1],"18,000 fold"
same,CL/F,"[2]; 1 mg, fasted, mean",42.3 L/h
same,CL/F,"[2]; 2 mg, fasted, mean",33.8 L/h
same,CL/F,"[2]; 4.5 mg, fasted, mean",37.6 L/h
same,CL/F,"[2]; 12 mg, fasted, mean",40.9 L/h
same,time therapeutically effective plasma levels maintained,"[2]; 22 mg, HCHF breakfast cohort",more than 12 h
same,time to reach therapeutically effective plasma levels,"[2]; 22 mg, HCHF breakfast cohort",≤ 15 min
same,higher AUClast after HCHF breakfast,[2]; [5],49%
same,lower Cmax after HCHF breakfast,[2]; [5],32%
same,CL/F,"[2]; 22 mg, after HCHF breakfast, mean",25.3 L/h
same,Mean (±SD) C12h,"[2]; 22 mg, fasted",8.34 ± 4.24 ng/mL
same,Mean C24h,"[2]; 22 mg, fasted",1.12 ± 0.786 ng/mL
same,CL/F,"[2]; 22 mg, fasted, mean",31.5 L/h
same,time to reach therapeutic efficacious threshold plasma concentration,[2]; all doses,≤ 15 min
same,time plasma levels maintained at therapeutic efficacious threshold,[2]; doses of 12 mg and 22 mg,approximately 12 h
same,Tmax,"[2]; human, plasma, oral, 1 mg to 22 mg, fasting, read-out: Median tmax in the dose range",0.5 to 1 h
same,Tmax,"[2]; human, plasma, oral, 1 mg to 22 mg, fasting, read-out: range of individual tmax values",0.25 to 1.02 h
same,AUC(0-t),[2]; [6],33 ng·h/mL
same,Cmax,[2]; [6],11.1 ng/mL
same,concentration at 0.25 h,[2]; [6],5.99 ng/mL
same,concentration at 12 h,"[2]; human, plasma, oral, 1 mg, fasted, mean, read-out: C12h",0.528 ng/mL
same,Vd/F,[2]; [6],190 L
same,half-life,"[2]; human, plasma, oral, 1 mg, fasted, mean, read-out: t1/2 (converted)",3.49 h
same,Tmax,"[2]; human, plasma, oral, 1 mg, fasted, median, read-out: tmax",0.5 h
same,AUC(0-t),[2]; [7],66 ng·h/mL
same,Cmax,[2]; [7],19.8 ng/mL
same,concentration at 0.25 h,[2]; [7],12.9 ng/mL
same,concentration at 12 h,"[2]; human, plasma, oral, 2 mg, fasted, mean, read-out: C12h",0.81 ng/mL
same,Vd/F,[2]; [7],181 L
same,half-life,"[2]; human, plasma, oral, 2 mg, fasted, mean, read-out: t1/2 (converted)",4.26 h
same,Tmax,"[2]; human, plasma, oral, 2 mg, fasted, median, read-out: tmax",0.75 h
same,AUC(0-t),[2]; [8],129 ng·h/mL
same,Cmax,[2]; [8],32.9 ng/mL
same,concentration at 0.25 h,[2]; [8],13 ng/mL
same,concentration at 12 h,"[2]; human, plasma, oral, 4.5 mg, fasted, mean, read-out: C12h",1.93 ng/mL
same,Vd/F,[2]; [8],222 L
same,half-life,"[2]; human, plasma, oral, 4.5 mg, fasted, mean, read-out: t1/2 (converted)",4.36 h
same,Tmax,"[2]; human, plasma, oral, 4.5 mg, fasted, median, read-out: tmax",1 h
same,AUC(0-t),[2]; [9],369 ng·h/mL
same,Cmax,[2]; [9],97.3 ng/mL
same,concentration at 0.25 h,[2]; [9],60.3 ng/mL
same,concentration at 12 h,"[2]; human, plasma, oral, 12 mg, fasted, mean, read-out: C12h",5.58 ng/mL
same,Vd/F,[2]; [9],235 L
same,half-life,"[2]; human, plasma, oral, 12 mg, fasted, mean, read-out: t1/2 (converted)",4.25 h
same,Tmax,"[2]; human, plasma, oral, 12 mg, fasted, median, read-out: tmax",0.5 h
same,Tmax,"[2]; human, plasma, oral, 22 mg, HCHF breakfast vs fasted, read-out: delay of median tmax after HCHF breakfast",~2 h
same,AUC(0-t),[2]; [10],1020 ng·h/mL
same,Cmax,[2]; [10],145 ng/mL
same,concentration at 0.25 h,[2]; [10],48.3 ng/mL
same,concentration at 12 h,"[2]; human, plasma, oral, 22 mg, after HCHF breakfast, mean, read-out: C12h",19.6 ng/mL
same,Vd/F,[2]; [10],180 L
same,half-life,"[2]; human, plasma, oral, 22 mg, after HCHF breakfast, mean, read-out: t1/2 (converted)",5.31 h
same,Tmax,"[2]; human, plasma, oral, 22 mg, after HCHF breakfast, median, read-out: tmax",3 h
same,AUC(0-t),[2]; [11],681 ng·h/mL
same,Cmax,[2]; [11],213 ng/mL
same,concentration at 0.25 h,[2]; [11],143 ng/mL
same,concentration at 12 h,"[2]; human, plasma, oral, 22 mg, fasted, mean, read-out: C12h",8.34 ng/mL
same,Vd/F,[2]; [11],252 L
same,half-life,"[2]; human, plasma, oral, 22 mg, fasted, mean, read-out: t1/2 (converted)",5.61 h
same,Tmax,"[2]; human, plasma, oral, 22 mg, fasted, median, read-out: tmax",0.75 h
same,concentration at 12 h,"[2]; human, plasma, oral, 22 mg, fed (HCHF breakfast), read-out: Mean (±SD) C12h",19.6 ± 10.7 ng/mL
same,concentration at 24 h,"[2]; human, plasma, oral, 22 mg, fed (HCHF breakfast), read-out: Mean C24h",5.39 ± 5.47 ng/mL
same,half-life,"[2]; human, plasma, po, single oral doses 1-22 mg, read-out: mean t1/2 between doses",3.5 to 5.6 h
same,"dose proportionality of PK (Cmax, AUClast, AUCinf)","[2]; single oral dose 1 mg to 22 mg, fasting",Dose proportional PK
same,Any adverse effects,"[3]; 1 mg, fasted, N = 6",2 (33.3%) n (%)
same,Any related adverse effects,"[3]; 1 mg, fasted, N = 6",0 n (%)
same,Any serious adverse effects,"[3]; 1 mg, fasted, N = 6",0 n (%)
same,Any adverse effects,"[3]; 2 mg, fasted, N = 6",1 (16.7%) n (%)
same,Any related adverse effects,"[3]; 2 mg, fasted, N = 6",0 n (%)
same,Any serious adverse effects,"[3]; 2 mg, fasted, N = 6",0 n (%)
same,Any adverse effects,"[3]; 4.5 mg, fasted, N = 6",1 (16.7%) n (%)
same,Any related adverse effects,"[3]; 4.5 mg, fasted, N = 6",0 n (%)
same,Any serious adverse effects,"[3]; 4.5 mg, fasted, N = 6",0 n (%)
same,Any adverse effects,"[3]; 12 mg, fasted, N = 14",5 (35.7%) n (%)
same,Any related adverse effects,"[3]; 12 mg, fasted, N = 14",2 (14.3%) n (%)
same,Any serious adverse effects,"[3]; 12 mg, fasted, N = 14",0 n (%)
same,Any adverse effects,[3]; [12],1 (16.7%) n (%)
same,Any related adverse effects,[3]; [12],0 n (%)
same,Any serious adverse effects,[3]; [12],0 n (%)
same,Any adverse effects,"[3]; 22 mg, fasted, N = 14",2 (14.3%) n (%)
same,Any related adverse effects,"[3]; 22 mg, fasted, N = 14",1 (7.1%) n (%)
same,Any serious adverse effects,"[3]; 22 mg, fasted, N = 14",0 n (%)
same,subjects with treatment-related adverse events,"[3]; 12 or 22 mg, gastrointestinal, mild severity",three
same,blood pressure fluctuations and orthostatic hypotension,[3]; single oral doses up to 22 mg,no clinically relevant fluctuations of blood pressure and no orthostatic hypotension
same,"changes in hematology, clinical chemistry, vital signs, or ECG",[3]; single oral doses up to 22 mg,no apparent trends or dose-related changes
same,safety and tolerability,[3]; single oral doses up to 22 mg,safe and well tolerated
same,time stayed above EC85,[4]; 12 mg oral dose,7 h
same,Time plasma level above EC85 at a 75% confidence level,[4]; 12 mg p.o.,6.5 h
same,"Time plasma level above EC85 at a 75% confidence level, DBP",[4]; 12 mg p.o.,7.5 h
same,"Time plasma level above EC85 at a 75% confidence level, MAP",[4]; 12 mg p.o.,7 h
same,duration of effect relative to the 12 mg dose,[4]; 22 mg oral dose,approximately twice as long
same,Time plasma level above EC85 at a 75% confidence level,[4]; 22 mg p.o.,9.5 h
same,"Time plasma level above EC85 at a 75% confidence level, DBP",[4]; 22 mg p.o.,10 h
same,"Time plasma level above EC85 at a 75% confidence level, MAP",[4]; 22 mg p.o.,10 h
same,potency relative to icatibant based on plasma concentrations,[4]; BK challenge EC50/EC85,approximately four-fold more potent than icatibant
same,EC50,"[4]; corrected for plasma protein binding 96.2%, read-out: free plasma concentration associated with EC50 of 2.4 ng/ml",0.17 nM
same,"intrinsic PD potency at the K B2 receptor, fold higher than icatibant",[4]; in vivo,about 25 fold
same,"Estimated EC85, Cardiac output",[4]; [13],0.00952 µg/mL
same,"Estimated EC85, Composite average",[4]; [13],0.0138 µg/mL
same,"Estimated EC85, Diastolic blood pressure",[4]; [13],0.01326 µg/mL
same,"Estimated EC85, Heart rate",[4]; [13],0.0187 µg/mL
same,EC50,"[4]; plasma concentration, PD in BK challenge, read-out: Estimated EC50, Cardiac output (converted)",3.14 nM
same,EC50,"[4]; plasma concentration, PD in BK challenge, read-out: Estimated EC50, Composite average (converted)",4.49 nM
same,EC50,"[4]; plasma concentration, PD in BK challenge, read-out: Estimated EC50, Diastolic blood pressure (converted)",4.37 nM
same,EC50,"[4]; plasma concentration, PD in BK challenge, read-out: Estimated EC50, Heart rate (converted)",6.17 nM
